Experimental data: patent publication US7521396B2, “Substituted (thioxo)carbonylaminophenyluracils” (Bayer CropScience AG, priority 2002, dated 2009)
Marks after values point to notes of the source that are not given here.

Assays:
weeds [1] = experiment: Post-emergence test (Example B), damage to weeds; assay type: in vivo; details: test plants of 5-15 cm sprayed, rated after three weeks
Protocol: (§1) To produce a suitable preparation of active compound, 1 part by weight of active compound is mixed with the stated amount of solvent, the stated amount of emulsifier is added and the concentrate is diluted with water to the desired concentration.
Test plants of a height of 5-15 cm are sprayed with the preparation of active compound such that the particular amounts of active compound desired are applied per unit area. The concentration of the spray liquor is chosen such that the particular amounts of active compound desired are applied in 1000 l of water/ha.
After three weeks, the degree of damage to the plants is rated in % damage in comparison to the development of the untreated control.
The figures denote: • 0%=no effect (like untreated control) • 100%=total destruction

[2] = logP by HPLC on reversed-phase column (C 18), EEC Directive 79/831 Annex V.A8; assay type: physicochemical
weeds [3] = experiment: Pre-emergence test (Example A), damage to weeds; assay type: in vivo; details: soil sprayed 24 hours after sowing, rated after three weeks
Protocol: as §1
Seeds of the test plants are sown in normal soil. After 24 hours, the soil is sprayed with the preparation of active compound such that the particular amount of active compound desired is applied per unit area. The concentration of active compound in the spray liquor is chosen such that the particular amount of active compound desired is applied in 1000 liters of water per hectare.
After three weeks, the degree of damage to the plants is rated in % damage in comparison to the development of the untreated control. The figures denote: • 0%=no effect (like untreated control) • 100%=total destruction

Compound	logP [2]	activity against weeds (degree of damage) (weeds [1])	activity against weeds (degree of damage) (weeds [3])
Cn1c(C(F)(F)F)cc(=O)n(-c2cc(NC(=O)NC3=NCCS3)c(Cl)cc2F)c1=O [Example 48]	logP = 2.11^a)	strong activity	strong activity
Cn1c(C(F)(F)F)cc(=O)n(-c2cc(NC(=O)NC3=NCCS3)c(Br)cc2F)c1=O [Example 39]	logP = 2.16^a)	strong activity	strong activity
CCCN(C(=O)Nc1cc(-n2c(=O)cc(C(F)(F)F)n(C)c2=O)c(F)cc1Cl)C(C)C [Example 45]	logP = 2.58^a)	strong activity	strong activity

Further lines, with some results ahead:

logP [2]	Compound	activity against weeds (degree of damage) (weeds [1])	activity against weeds (degree of damage) (weeds [3])
logP = 2.59^a)	Cn1c(C(F)(F)F)cc(=O)n(-c2cc(NC(=O)N3CCOC3=O)c(Br)cc2F)c1=O [Example 30]	strong activity	strong activity
logP = 2.55^a)	Cn1c(C(F)(F)F)cc(=O)n(-c2cc(NC(=O)N3CCOC3=O)c(Cl)cc2F)c1=O [Example 25]	strong activity	strong activity
logP = 3.06^a)	CCOC(=O)C(C)OC(=O)Nc1cc(-n2c(=O)cc(C(F)(F)F)n(C)c2=O)c(F)cc1Br (stereo not drawn) [Example 10]	strong activity	strong activity
logP = 2.67^a)	CON(C)C(=O)Nc1cc(-n2c(=O)cc(C(F)(F)F)n(C)c2=O)c(F)cc1Br [Example 8]	strong activity	strong activity
logP = 2.55^a)	CN1CCN(C(=O)Nc2cc(-n3c(=O)cc(C(F)(F)F)n(C)c3=O)c(F)cc2Br)C1=O [Example 5]	strong activity	strong activity
